Calls of active or inactive are those of the source.

In one assay the target is T1, Aminopeptidase N (Plasmodium falciparum FcB1/Columbia, UniProt O96935).
T1 sequence (O96935 whole entry): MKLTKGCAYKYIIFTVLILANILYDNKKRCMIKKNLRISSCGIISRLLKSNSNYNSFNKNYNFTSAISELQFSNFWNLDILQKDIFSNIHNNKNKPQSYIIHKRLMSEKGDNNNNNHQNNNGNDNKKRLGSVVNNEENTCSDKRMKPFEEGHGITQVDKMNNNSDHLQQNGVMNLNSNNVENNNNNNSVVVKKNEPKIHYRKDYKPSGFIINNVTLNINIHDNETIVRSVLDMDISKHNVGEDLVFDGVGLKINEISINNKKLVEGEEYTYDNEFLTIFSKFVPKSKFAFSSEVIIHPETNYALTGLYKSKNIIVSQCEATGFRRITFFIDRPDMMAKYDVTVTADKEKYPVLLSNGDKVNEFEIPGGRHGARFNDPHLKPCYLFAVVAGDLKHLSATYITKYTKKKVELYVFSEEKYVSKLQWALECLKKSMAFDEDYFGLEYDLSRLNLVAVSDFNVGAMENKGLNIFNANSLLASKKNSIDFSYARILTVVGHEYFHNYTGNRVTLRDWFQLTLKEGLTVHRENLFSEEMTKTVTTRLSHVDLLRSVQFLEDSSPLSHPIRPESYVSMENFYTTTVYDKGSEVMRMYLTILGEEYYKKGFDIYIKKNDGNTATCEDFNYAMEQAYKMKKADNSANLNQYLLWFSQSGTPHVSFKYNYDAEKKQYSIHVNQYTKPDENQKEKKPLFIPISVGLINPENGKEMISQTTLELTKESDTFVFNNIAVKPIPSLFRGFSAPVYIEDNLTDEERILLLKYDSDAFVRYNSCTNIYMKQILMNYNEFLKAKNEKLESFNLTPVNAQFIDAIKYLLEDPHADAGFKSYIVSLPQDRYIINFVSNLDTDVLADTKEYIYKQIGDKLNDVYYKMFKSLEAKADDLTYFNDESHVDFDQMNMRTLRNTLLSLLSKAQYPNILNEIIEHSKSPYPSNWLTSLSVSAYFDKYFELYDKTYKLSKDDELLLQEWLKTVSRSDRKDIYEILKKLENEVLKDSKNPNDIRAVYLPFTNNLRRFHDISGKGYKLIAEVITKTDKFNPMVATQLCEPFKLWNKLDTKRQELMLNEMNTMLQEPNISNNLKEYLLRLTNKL
Nature of the assay: P. falciparum M1AAP inhibitors, biochemical, fluorogenic H-Leu-NHMec substrate, 1536-well (AID 1445). More on the design: species or system Plasmodium falciparum 3D7, 3D7.

Assay [1] has as its target T2, Short transient receptor potential channel 4 (Mus musculus, UniProt Q9QUQ5).
T2 sequence (Q9QUQ5 whole entry): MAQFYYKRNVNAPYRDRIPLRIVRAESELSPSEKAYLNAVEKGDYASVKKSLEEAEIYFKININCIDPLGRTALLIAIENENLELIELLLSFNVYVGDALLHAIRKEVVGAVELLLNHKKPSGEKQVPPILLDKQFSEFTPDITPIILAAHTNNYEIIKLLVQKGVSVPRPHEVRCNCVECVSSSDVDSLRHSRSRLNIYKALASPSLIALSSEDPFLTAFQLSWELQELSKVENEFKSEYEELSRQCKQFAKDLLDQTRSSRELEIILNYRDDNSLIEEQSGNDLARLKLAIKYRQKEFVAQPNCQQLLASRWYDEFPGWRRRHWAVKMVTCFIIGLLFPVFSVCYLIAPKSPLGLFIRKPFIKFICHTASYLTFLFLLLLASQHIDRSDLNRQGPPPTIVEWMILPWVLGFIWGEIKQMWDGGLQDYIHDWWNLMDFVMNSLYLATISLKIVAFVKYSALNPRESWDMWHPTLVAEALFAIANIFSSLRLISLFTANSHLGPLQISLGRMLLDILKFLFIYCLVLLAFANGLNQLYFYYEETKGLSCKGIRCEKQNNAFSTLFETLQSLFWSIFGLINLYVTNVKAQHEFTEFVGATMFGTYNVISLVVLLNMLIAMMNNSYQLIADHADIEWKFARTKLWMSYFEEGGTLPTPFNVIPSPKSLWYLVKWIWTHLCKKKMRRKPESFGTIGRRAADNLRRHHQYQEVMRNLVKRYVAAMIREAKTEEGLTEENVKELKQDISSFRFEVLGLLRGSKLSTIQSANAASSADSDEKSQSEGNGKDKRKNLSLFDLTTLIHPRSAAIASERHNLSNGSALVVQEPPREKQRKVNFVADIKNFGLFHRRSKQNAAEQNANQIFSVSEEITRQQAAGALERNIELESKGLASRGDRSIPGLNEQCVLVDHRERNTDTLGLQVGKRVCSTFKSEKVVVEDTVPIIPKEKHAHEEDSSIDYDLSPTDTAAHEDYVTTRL
Nature of the assay: mouse TRPC4 channel inhibitors, dose response, cell-based, HEK293 TRPC4/mu-opioid, Fluo-4 calcium (AID 434942).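 Further: potency of inhibitors blocking the TRPC4 calcium response.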 The format is functional.

Assay [2] is described as follows: HIV-1 Env-mediated cell fusion inhibitors, dose response, CCR5-tropic Env (AID 2279). Type of assay: functional.
Assay [3] concerns BJ. Put plainly: cytotoxicity toward BJ-TERT fibroblasts, dose response, cell-based, RAS-independent, luminescence (AID 1933). The format is functional. The conditions noted are these: Homo sapiens.
The target of assay [4] is Cyclin-dependent kinase 5/CDK5 activator 1 (Homo sapiens, UniProt Q00535). Put plainly: CDK5/p35 kinase inhibitors, dose response, biochemical, cherry-picked samples, set 2 (AID 504545).
Cyclin-dependent kinase 5/CDK5 activator 1, sequence (Q00535 whole entry): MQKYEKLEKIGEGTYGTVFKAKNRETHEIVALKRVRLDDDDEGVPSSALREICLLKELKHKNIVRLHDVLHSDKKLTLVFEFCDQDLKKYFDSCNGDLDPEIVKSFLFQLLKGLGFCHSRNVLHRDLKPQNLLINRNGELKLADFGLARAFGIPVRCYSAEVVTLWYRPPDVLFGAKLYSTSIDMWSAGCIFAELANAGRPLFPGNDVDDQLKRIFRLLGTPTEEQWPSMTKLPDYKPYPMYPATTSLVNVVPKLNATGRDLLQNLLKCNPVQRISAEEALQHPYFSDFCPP
Cyclin-dependent kinase 5/CDK5 activator 1, sequence (Q15078 whole entry, further chain): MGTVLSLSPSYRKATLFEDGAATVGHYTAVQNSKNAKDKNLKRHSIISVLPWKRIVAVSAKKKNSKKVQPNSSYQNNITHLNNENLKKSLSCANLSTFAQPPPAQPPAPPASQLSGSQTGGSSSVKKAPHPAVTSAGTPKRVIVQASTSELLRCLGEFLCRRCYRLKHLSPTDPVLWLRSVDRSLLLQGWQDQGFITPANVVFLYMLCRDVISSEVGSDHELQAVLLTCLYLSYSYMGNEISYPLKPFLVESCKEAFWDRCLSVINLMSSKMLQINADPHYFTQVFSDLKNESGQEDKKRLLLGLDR
Assay [5] relates to BJ. Put plainly: cytotoxicity toward BJ-TERT-LT-ST fibroblasts, dose response, cell-based, RAS-independent, luminescence (AID 1935).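 Further: BJ fibroblasts immortalized with TERT plus LT and ST oncogenes.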 Type of assay: functional. The settings on record: Homo sapiens.
Assay [6] in a line: cytotoxicity toward DRD oncogenic fibroblasts, dose response, cell-based, non-viral oncogenic, luminescence (AID 1934). The format is functional. The settings on record: Homo sapiens.
Assay [7] addresses T3, Luciferin 4-monooxygenase (Photinus pyralis, UniProt P08659). Nature of the assay: Counter Screen for Luciferase-based Assay Positives. [Related pubchem assays: 620, 618, 411 ].
Assay [8] in a line: Luminescence Cell-Based Dose Confirmation HTS to Identify Inhibitors of Platelet Dense Granule Release. [Related pubchem assays: 1663 (Primary HTS), 1678 (Summary of Project)]. The format is functional.
The next assay has as its system HT-1080. Nature of the assay: cytotoxicity in HT1080 fibrosarcoma cells, cell-based, fluorescence readout (AID 620). Type of assay: functional. The conditions noted are these: Homo sapiens.
For assay [9], the target named is T3, Luciferin 4-monooxygenase. Put plainly: firefly luciferase enzyme inhibitors, dose response, biochemical, luminescence (AID 1891).
The test system of assay [10] is BJ. Nature of the assay: cytotoxicity toward Ras-transformed BJeLR fibroblasts, dose response, cell-based, alamar blue fluorescence, cherrypicked samples (AID 2631).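 Further: confirmatory dose-response assay in RAS-dependent BJ fibroblasts engineered with TERT, LT and ST, with cytotoxicity read by fluorescence.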 The conditions noted are these: Homo sapiens. Type of assay: functional.
Assay [11] relates to BJ. Nature of the assay: cells. The settings on record: Homo sapiens. Type of assay: functional, cell-based.
The target in assay [12] is T4, Neuropeptide Y receptor type 2 (Homo sapiens, UniProt P49146).
T4 sequence (P49146 whole entry): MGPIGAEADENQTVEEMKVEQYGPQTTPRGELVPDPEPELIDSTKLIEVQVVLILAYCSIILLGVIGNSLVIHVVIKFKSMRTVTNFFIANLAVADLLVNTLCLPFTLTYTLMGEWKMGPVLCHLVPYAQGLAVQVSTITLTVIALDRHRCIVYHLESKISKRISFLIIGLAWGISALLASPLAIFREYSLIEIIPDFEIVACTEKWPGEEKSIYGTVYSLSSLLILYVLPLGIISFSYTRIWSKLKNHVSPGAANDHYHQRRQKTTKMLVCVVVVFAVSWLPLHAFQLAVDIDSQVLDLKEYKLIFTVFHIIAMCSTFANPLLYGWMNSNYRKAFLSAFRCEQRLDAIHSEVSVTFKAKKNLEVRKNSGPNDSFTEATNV
Put plainly: Fluorescence-based cell-based high-throughput dose response assay for agonists of NPY-Y2. [Related pubchem assays: 1703 (Screening assay (CNGC inhibitors).), 1359 (Screening assay (NPY-Y2 potentiators or agonists).), 1304 (Screening assay (NPY-Y1 potentiators or agonists).), 1710 (Screening assay (NPY-Y2 agonists).), 1791 (Summary AID.)]. Type of assay: functional.

Assay [13] deals with T5, Neuropeptide Y receptor type 1 (Homo sapiens, UniProt P25929).
T5 sequence (P25929 whole entry): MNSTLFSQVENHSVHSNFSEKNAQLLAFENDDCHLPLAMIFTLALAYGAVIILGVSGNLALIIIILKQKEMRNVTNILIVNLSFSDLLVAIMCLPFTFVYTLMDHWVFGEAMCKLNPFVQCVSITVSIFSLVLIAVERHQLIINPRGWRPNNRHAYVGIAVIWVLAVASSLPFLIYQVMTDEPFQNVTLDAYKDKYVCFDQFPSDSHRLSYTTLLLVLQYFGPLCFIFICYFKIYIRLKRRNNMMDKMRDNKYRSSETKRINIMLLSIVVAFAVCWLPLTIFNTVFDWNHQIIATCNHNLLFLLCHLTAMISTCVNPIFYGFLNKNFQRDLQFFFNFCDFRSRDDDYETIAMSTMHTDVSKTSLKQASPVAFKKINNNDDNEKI
Nature of the assay: Fluorescence-based counterscreen for agonists of NPY-Y2: cell-based high-throughput dose response assay for agonists of NPY-Y1. The format is functional. (Counterscreens check selectivity or assay interference.)

For the next assay, the system named is HEK293. Nature of the assay: Fluorescence-based counterscreen for potentiators or agonists of NPY-Y2: cell-based high-throughput dose response assay to identify inhibitors of cyclic nucleotide gated ion channel (CNGC) activity. In this assay, the parental HEK293 cell line transfected with a cyclic-nucleotide gated ion channel (CNGC)-based cAMP sensor is used to measure inhibition of isoproterenol-induced CNGC activity by test compound. The format is functional. The settings on record: Homo sapiens.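 Further: stimulus is 1 µM isoproterenol at EC100 plus PDE inhibitor Ro 20-1724 at 25 µM.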

The next assay has as its target T6, Aspartyl aminopeptidase (Plasmodium falciparum 3D7, UniProt Q8I2J3).
T6 sequence (Q8I2J3 whole entry): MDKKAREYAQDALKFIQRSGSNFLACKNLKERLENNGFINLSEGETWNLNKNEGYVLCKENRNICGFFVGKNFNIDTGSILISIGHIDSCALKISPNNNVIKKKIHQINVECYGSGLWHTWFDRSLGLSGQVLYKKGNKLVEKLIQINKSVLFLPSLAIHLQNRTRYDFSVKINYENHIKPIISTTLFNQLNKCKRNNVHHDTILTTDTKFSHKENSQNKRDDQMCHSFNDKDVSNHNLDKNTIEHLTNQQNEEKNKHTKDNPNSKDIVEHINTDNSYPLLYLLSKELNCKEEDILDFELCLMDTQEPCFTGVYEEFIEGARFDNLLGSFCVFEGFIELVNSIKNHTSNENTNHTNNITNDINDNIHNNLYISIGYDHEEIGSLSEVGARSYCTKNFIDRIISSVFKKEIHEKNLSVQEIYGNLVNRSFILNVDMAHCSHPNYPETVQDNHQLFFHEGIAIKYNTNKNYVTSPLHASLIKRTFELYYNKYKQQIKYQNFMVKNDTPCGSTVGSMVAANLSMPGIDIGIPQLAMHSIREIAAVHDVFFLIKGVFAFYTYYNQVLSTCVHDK

A further assay addresses Procathepsin L (Homo sapiens, UniProt P07711).

T3 sequence (P08659 whole entry): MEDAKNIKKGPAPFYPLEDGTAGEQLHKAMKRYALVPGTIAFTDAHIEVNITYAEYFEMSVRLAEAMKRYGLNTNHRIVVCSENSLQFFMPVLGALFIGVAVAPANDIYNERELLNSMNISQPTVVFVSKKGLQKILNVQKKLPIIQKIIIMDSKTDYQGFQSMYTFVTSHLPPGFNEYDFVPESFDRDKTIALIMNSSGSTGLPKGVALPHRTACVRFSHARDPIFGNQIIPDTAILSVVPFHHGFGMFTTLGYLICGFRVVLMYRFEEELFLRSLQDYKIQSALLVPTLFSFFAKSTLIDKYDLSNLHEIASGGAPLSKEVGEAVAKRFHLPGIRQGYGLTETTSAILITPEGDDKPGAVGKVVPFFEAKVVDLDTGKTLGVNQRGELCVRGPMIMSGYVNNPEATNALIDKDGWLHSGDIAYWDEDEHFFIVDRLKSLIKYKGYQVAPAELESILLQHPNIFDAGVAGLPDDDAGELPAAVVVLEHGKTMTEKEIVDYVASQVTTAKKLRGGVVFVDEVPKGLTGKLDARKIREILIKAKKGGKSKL
Procathepsin L, sequence (P07711 whole entry): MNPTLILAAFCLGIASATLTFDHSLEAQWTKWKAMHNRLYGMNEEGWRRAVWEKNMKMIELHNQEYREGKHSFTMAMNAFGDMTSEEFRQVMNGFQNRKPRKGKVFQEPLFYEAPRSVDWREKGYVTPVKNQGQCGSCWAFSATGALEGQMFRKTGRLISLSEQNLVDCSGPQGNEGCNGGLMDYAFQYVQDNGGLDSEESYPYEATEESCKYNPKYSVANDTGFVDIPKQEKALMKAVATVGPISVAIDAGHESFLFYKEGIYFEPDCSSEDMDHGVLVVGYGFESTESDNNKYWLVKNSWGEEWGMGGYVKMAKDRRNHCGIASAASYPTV

The term IC50 denotes the point on the concentration scale where inhibition reaches its midpoint. For orientation: EC50 means the midpoint of the concentration-response curve. `COc1cc(/C=C2\SC(=O)N(c3ccccc3Cl)C2=O)cc([N+](=O)[O-])c1O`: the IC50 at Aminopeptidase N is 65.8 µM (active); in assay [2] it was 42.5 µM (active). Also, the EC50 in assay [1] was 1.06 µM (active).

For orientation: AC50 means the concentration at which the activity in the assay is half-maximal. Take `COc1ccc(-c2cc3nc(C)cc(N)n3n2)cc1`: the EC50 with BJ [3] is 3.85 µM (inconclusive); in the assay with BJ [5] it was 17.6 µM (active); in assay [6], 6.14 µM (active); in assay [7], 2.85 µM (active); in [8], 0.621 µM (active); in the assay on HT-1080 it was > 50 µM (not active). Further, the EC50 in assay [9] was 0.513 µM (active); with BJ [10], > 133 µM (inactive); in the assay on BJ [11] it was 4.45 µM (active). Besides, the AC50 in assay [4] is 17.5 µM (active).

On to `NC(=O)c1ccc2nc(NC(=O)c3ccc(N)cc3)sc2c1`, for which the EC50 (in assay [12]; in assay [13]; with HEK293) was > 35.4 µM (not active) each time.

With `O=C(O)c1ccc(O)c(O)c1` [PROTOCATECHUIC ACID], the figures for the concentration for half-maximal inhibition (IC50) at Aspartyl aminopeptidase and against Procathepsin L were 0.479 µM (active) and > 59.6 µM (not active), respectively.

These data come from ChEMBL document CHEMBL1201862, “PubChem BioAssay data set” (2004).
